Test results: patent publication US20260183303A1, “PDK1 REGULATORY COMPOUND AND COMPOSITION CONTAINING THE SAME” (PROVIBIO CO., LTD., priority 2024, published 2026)
Counter-ions that a name gives are not always drawn.

Assays:
[1] = system: bleomycin-induced pulmonary fibrosis mice; assay: Pulmonary fibrosis model induced by bleomycin intratracheal administration; format: in vivo, Balb/c mice; details: BLM mice, vs BLM-treated group
Description: To evaluate the therapeutic efficacy of the compound according to the present invention against pulmonary fibrosis, an animal model of pulmonary fibrosis induced by bleomycin intratracheal administration was established.
For this purpose, 8-week-old male Balb/c mice were subjected to general anesthesia using an inhalation anesthetic (2-3% isoflurane in oxygen), followed by disinfection of the neck region, skin incision, and exposure of the trachea.
Bleomycin (Sigma-Aldrich, USA)was directly administered into the trachea at a concentration of 5 mg/kg in a solution of […].
Two days prior to Bleomycin administration, the compound of the present invention or the comparative drug was administered intraperitoneally at the specified concentration and dose, and the administration was continued once daily for a total of 14 days.
The experimental groups included Normal, Bleomycin alone (BLM), and BLM plus the compound of the present invention (BLM+G088, 0.2 mg/kg).
Ten days later, the mice were euthanized humanely using carbon dioxide gas, the trachea was incised, and PBS was injected into the trachea to remove blood from the lungs.
The lung tissue washed with PBS was excised, fixed in 4% paraformaldehyde solution for 24 hours, and then paraffin blocks and tissue sections were prepared. The prepared sections were subjected to pathological analysis using H&E, Masson's trichrome, and Sirius red staining.
Additionally, immunohistochemical (IHC) staining was performed for α-SMA (α-smooth muscle actin), an indicator of lung fibroblast activation.

[2] = system: MRL/MpJ-Faslpr/J (MRL/lpr) lupus animal model; assay: Systemic lupus erythematosus model, MRL/lpr mice; format: in vivo
Description: The MRL/MpJ-Faslpr/J (hereinafter referred to as “MRL/lpr”) used in this experiment is one of the representative animal models for systemic lupus erythematosus (SLE), known to produce various autoantibodies, including antinuclear antibodies, due to the lpr (lymphoproliferation) gene.
Generally, female MRL/lpr develop systemic lupus erythematosus around 12 weeks of age, and approximately 50% of the animals die by 30 weeks of age.
In this invention, the period up to 9 weeks of age was considered the pre-disease stage, and the period after 23 weeks of age was considered the post-disease stage, and efficacy verification experiments using this model were conducted.
To obtain experimental animals, female MRL/lpr mice aged 6 weeks were imported from The Jackson Laboratory, and MRL/lpr mice were imported from The Jackson Laboratory and acclimatized for one week in an SPF (Specific Pathogen Free) facility maintained at a temperature of 21-24° C., humidity of 40-60%, and a 12-hour light-dark cycle (lights on at 7:00 AM, lights off at 7:00 PM).
Subsequently, female and male MRL/lpr mice were mated at a ratio of 2:1 in the same facility, and the female offspring were administered the compound G015F of the present invention or vehicle at a dose of 30 mg/kg once daily via intraperitoneal injection or oral administration from the age of 10 weeks until 23 weeks of age.
Urine samples were collected once a week from each individual and used for analytical experiments.
At 23 weeks of age, necropsy was performed on each MRL/lpr mouse, and serum, kidneys, and spleens were isolated and used for analytical experiments.
The protein concentration in urine collected weekly from the control group or experimental group was analyzed using ‘Quick Start™ Bradford 1× Dye Reagent (Bio-Rad, Cat. #5000205).’
In each well of a 96-well plate, 5 μl of urine sample diluted with triple-distilled water and 250 μl of 1× dye reagent were added, reacted, and the absorbance was measured at 595 nm.
The concentration of anti-nuclear antibodies (Anti-dsDNA Ab) was measured using the ‘Mouse Anti-dsDNA IgG ELISA Kit (Alpha Diagnostic International, Cat. #5120)’ on serum isolated at the time of necropsy in the lupus animal model.
Each mouse serum was diluted to a final concentration of 1/5000 with Working Sample Diluent (WSD) and Low NSB Sample Diluent (LNSD), followed by adding 100 μl of the diluted serum to wells coated with anti-dsDNA and incubating at room temperature for 60 minutes.
The wells were then washed four times with 200 μl of washing buffer, followed by the addition of 100 μl of Anti-Mouse IgG-HRP antibody, and the mixture was incubated at room temperature for 30 minutes.
Each well was washed four times with 200 μl of washing buffer, and 100 μl of 3,3′,5,5′-Tetramethylbenzidine (TMB) substrate solution was added to each well.
The degree of color change to blue in the wells containing the standard solution was checked, and after 15 minutes, 100 μl of stop solution was added to terminate the reaction.
After the reaction was complete, the optical density (OD) was measured at 450 nm. […]
After that, each well was washed twice with 400 μl of washing solution, and 100 μl of TMB substrate solution was added to each well.
The degree of color change to blue in the wells containing the standard solution was checked, and after 15 minutes, 100 μl of stop solution was added to stop the reaction.
To investigate the effect of G015F administration on changes in the ratio of immune cells in the spleen of a lupus animal model, the spleens of mice administered each compound were excised, cells were extracted, and the cells were suspended in MACS buffer (autoMACS Washing Solution, Miltenyi Biotec., Cat. #130-092-987).
For flow cytometry analysis, FACS tubes (5 mL round tubes, Falcon, Cat. #352052)were used. […]

[3] = biological target: T1, PDK1 (phosphoinositide-dependent kinase 1) phosphorylation (Homo sapiens, UniProt O15530); assay: PDK1 phosphorylation (pPDK1-PE) by flow cytometry in SU-DHL-8 cells; format: cell-based; details: 24 hours, compared to the control group
T1 construct: endogenous in cells; host or cells: SU-DHL-8 (ATCC CRL-2961)
T1 sequence (O15530 1-556): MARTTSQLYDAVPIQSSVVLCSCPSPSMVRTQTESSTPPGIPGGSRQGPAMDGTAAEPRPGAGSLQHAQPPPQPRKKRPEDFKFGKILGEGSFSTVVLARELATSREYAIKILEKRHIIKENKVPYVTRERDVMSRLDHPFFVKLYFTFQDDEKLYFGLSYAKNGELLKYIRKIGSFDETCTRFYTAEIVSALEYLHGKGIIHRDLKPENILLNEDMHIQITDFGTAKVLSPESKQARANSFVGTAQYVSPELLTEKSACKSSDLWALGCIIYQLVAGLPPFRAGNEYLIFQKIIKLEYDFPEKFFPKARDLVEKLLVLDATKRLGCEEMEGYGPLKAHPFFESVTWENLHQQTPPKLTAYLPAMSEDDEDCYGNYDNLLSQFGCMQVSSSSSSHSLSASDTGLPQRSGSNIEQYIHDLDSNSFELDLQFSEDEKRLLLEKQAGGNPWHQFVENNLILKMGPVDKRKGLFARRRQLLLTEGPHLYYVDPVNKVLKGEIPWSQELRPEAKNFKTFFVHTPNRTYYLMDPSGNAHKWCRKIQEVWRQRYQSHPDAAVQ
Description: After stabilizing the cells, the compound of the present invention was added, and the cells were cultured for 24 hours.
After drug treatment, the cells were harvested, and the Fc receptor blocking process was performed. The cells were then fixed and permeabilized using the Intracellular Staining Kit (Cat. No. BD554715) from BD Biosciences. Subsequently, the intracellular pPDK1 was stained using the pPDK1-PE fluorescently labeled antibody (BD Biosciences).
Referring to the figure, the vertical axis represents the phosphorylation level of PDK1 (phospho-PDK1 expression level), and the horizontal axis denotes the concentration-dependent treatment conditions of each compound.

[4] = system: MRL/lpr mice with hair loss symptoms in the facial region; assay: Hair loss treatment and hair follicle Ki-67 IHC in MRL/lpr mice; format: in vivo; details: 41-week-old female MRL/lpr mice; GO15F (30 mg/kg), G048 (1 mg/kg), G088 (0.5 mg/kg) intraperitoneally once daily
Description: Additionally, in 41-week-old female MRL/lpr mice, the compounds GO15F (30 mg/kg), G048 (1 mg/kg), and G088 (0.5 mg/kg) were administered intraperitoneally once daily.
To confirm the proliferative activity of hair follicle cells in the skin tissue of these mice, the mice were sacrificed 14 days after administration of the compounds of the present invention, and Ki-67 immunohistochemistry […] was performed.
For this purpose, the excised skin tissue was fixed in formalin, embedded in paraffin blocks, and stained with a Ki-67-specific antibody on tissue sections prepared as slides.

[5] = system: Human B Lymphocyte cell line, SU-DHL-8; assay: Relative cell viability (CCK-8), SU-DHL-8; format: cell-based; details: Homo sapiens, SU-DHL-8, 48 h
Description: Human-derived B lymphoma cell line SU-DHL-8 (Cat. #CRL-2961) purchased from ATCC was cultured in RPMI-1640 medium containing […], 100 U/mL penicillin, and 100 μg/mL streptomycin.
The cell culture medium was then harvested, centrifuged at 1,300 rpm for 5 minutes, and the supernatant was removed. The cells were resuspended in the same medium and dispensed into a 96-well plate (Costar 96-well cell culture plate, Corning) at 90 μL per well, resulting in the conditions specified in Table 5.
Then, 10 μL of CCK-8 was added to each well, and the plates were incubated again at 37° C. in a 5% CO2 incubator for 4 hours.
In other words, when the survival rate of untreated cells (DMSO) is set at 100%, the relative cell survival rate in each group treated with the drug at different concentrations is indicated.

[6] = system: T cells isolated from mouse spleens; assay: T cell proliferation inhibition (CFSE flow cytometry, anti-CD3/anti-CD28 activation); format: cell-based, C57BL/6 mice; details: Mus musculus, T-cell, 72 h, mouse spleen T cells, CD3/CD28 activated, cultured three days, read-out: Proliferation inhibition rate (%)
How it was run: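 Splenic T cells from 7-week-old C57BL/6 mice were CFSE-labelled and seeded at 2×10^5/well. They were activated with anti-CD3/anti-CD28 ([…]) and treated with compound at […] in triplicate for 3 days at 37 °C. Proliferation was read by CFSE dilution on flow cytometry and expressed as % inhibition.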

[7] = serum at necropsy (23 weeks), ELISA

Row | Compound | collagen deposition (Masson's trichrome, Sirius red) [1] | expression of α-SMA in lung tissue (IHC) [1] | protein concentration in urine ([2]; 30 mg/kg once daily, weekly urine, Bradford) | renal pathological tissue staining (glomeruli) ([2]; H&E, PAS, Masson trichrome) | B cells, T cells and macrophages in the spleen ([2]; flow cytometry (B220, CD3, CD11b/F4/80)) | IgG deposition in kidney tissue ([2]; immunofluorescence staining) | concentration of anti-dsDNA IgG in the blood [2, 7] | total IgG concentration in the blood [2, 7] | phospho-PDK1 expression level (inhibition of PDK1 phosphorylation) [3] | hair growth on the facial region [4] | viability at 1 µM ([5]; read-out: Relative cell viability (%), SU-DHL-8, 1 μM, untreated cells (DMSO) = 100%) [%] | viability at 10 µM ([5]; read-out: Relative cell viability (%), SU-DHL-8, 10 μM, untreated cells (DMSO) = 100%) [%] | viability at 30 µM ([5]; read-out: Relative cell viability (%), SU-DHL-8, 30 μM, untreated cells (DMSO) = 100%) [%] | viability at 50 µM ([5]; read-out: Relative cell viability (%), SU-DHL-8, 50 μM, untreated cells (DMSO) = 100%) [%] | inhibition at 0.01 µM ([6]; 10 nM) [%] | inhibition at 0.1 µM ([6]; 100 nM) [%] | inhibition at 1 µM ([6]; 1 μM) [%] | inhibition at 10 µM ([6]; 10 μM) [%] | inhibition at 30 µM ([6]; 30 μM) [%] | inhibition at 50 µM ([6]; 50 μM) [%]
1 | Nc1ncccc1C(=O)NCCCCCCCCCCCCF [Compound G015F] | significantly reduced | significantly suppressed | significantly lower | glomerular capillary loops were well maintained | reduced the increased B cells, T cells, and macrophages | significantly lower | significantly lower | significantly lower | inhibitory effect on PDK1 phosphorylation | – | – | – | – | – | – | – | – | – | – | –
2 | Nc1ncccc1C(=O)NCCCCCCCCCCCCN1CCOCC1 [Compound 2, 2-Amino-N-(12-morpholin-4-yl-dodecyl)-nicotinamide] | – | – | – | – | – | – | – | – | stronger PDK1 inhibition | hair growth was confirmed | – | – | – | – | – | – | – | – | – | –
3 | O=C(NCCCCCCCCCCCCN1CCNCC1)c1ccc(-c2ccccc2)o1 [Compound 90, 5-Phenyl-N-(12-(piperazin-1-yl)dodecyl)furan-2-carboxamide hydrochloride] | – | – | – | – | – | – | – | – | – | – | 7.19 | 5.94 | 2.48 | 1.94 | -8.27 | -2.03 | 66.2 | 100 | 100 | 100
